Laboratory results reported in US5457106A, “Pyridine derivatives, their production and use” (Takeda Chemical Industries, Ltd., priority 1991, dated 1995).
Where a name gives a salt, the structure may show the parent alone. Read-outs that look alike come from different tables or passages of the source. Values belong to the compound of their own block, whether it stands above or below them.

Tests used:
[1] = test system: ART (antigen-responding T-cell); assay: In vitro ART (antigen-responding T-cell) proliferation test; type: cell-based, Lewis rat; conditions: Rattus norvegicus, T-cell, read-out: % Inhibition of ART growth
ICAM-1 = assay: Adhesion protein expression inhibitory activity, ICAM-1; type: cell-based
Experimental: (§1) Adhesion Protein Expression Inhibitory Activity The various concentrations of test compounds were added to the human umbilical cord-derived vascular endothelial cells [sold by Klabo] which were seeded in the gelatin coat plate and the mixture was incubated at 37° C. for 15 minutes. Then, the human tumor necrosis factor-α[TNF-α; sold by Genzyme] was added therein to the final concentration of 1 ng/ml and incubation was carried out at 37° C. for 3 hours for expression of ELAM-1 and for 6 hours for that of ICAM-I. After the reaction, the cells were fixed using glutaraldhyde and the expression amount of ELAM-1 and ICAM-1 was measured by the cell-ELISA method. That is, the expression was determined by […] the adhesion proteins on the cells in the system using anti-ELAM-1 antibody BBA-2 and anti-ICAM-1 antibody BBA4 as the first antibody as well as horseradish peroxidase-labeled rabbit anti-mouse IgG antibody as the second antibody.

5-Lipoxygenase = molecular target: T1, 5-Lipoxygenase (Rattus norvegicus, UniProt P12527); assay: 5-Lipoxygenase inhibitory activity in rat basophilic leukemia cells; type: cell-based
T1 construct: rat basophilic leukemia cell suspension; endogenous in cells
T1 sequence (P12527 1-673): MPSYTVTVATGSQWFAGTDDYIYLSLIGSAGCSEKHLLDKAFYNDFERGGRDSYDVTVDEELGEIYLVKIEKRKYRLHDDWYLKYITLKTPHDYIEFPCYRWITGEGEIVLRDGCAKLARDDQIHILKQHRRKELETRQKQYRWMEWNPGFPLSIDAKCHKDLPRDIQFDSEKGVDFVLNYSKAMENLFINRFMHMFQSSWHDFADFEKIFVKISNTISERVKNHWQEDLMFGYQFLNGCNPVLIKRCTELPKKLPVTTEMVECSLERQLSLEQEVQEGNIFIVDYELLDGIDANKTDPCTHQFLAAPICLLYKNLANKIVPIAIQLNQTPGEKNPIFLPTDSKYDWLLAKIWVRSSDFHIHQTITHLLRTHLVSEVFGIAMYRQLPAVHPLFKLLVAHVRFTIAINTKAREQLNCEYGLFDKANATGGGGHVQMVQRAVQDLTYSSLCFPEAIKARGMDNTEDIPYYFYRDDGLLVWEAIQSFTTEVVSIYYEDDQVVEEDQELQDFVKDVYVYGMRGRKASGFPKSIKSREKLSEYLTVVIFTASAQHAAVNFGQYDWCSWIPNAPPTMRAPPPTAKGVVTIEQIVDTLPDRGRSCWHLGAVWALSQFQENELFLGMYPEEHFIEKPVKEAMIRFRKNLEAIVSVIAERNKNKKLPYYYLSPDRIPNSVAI
Experimental: 5-Lipoxygenase Inhibitory Activity […] Then, 0.1 ml of mast cell medium containing 50 μg of arachidonic acid and 1 μg of calcium ionophore (A-23187) were added and the mixture was allowed to stand at 37° C. for 15 minutes. Ethanol (1 ml) was added thereto and the mixture was shaken well, and filtered (Membrane filter, 0.45 μm). […] As a control, the measurement was carried out according to the same manner except that 0.01 ml of the solvent used for dissolving the test compound was used in place of the test compound. The inhibitory percentage (%) was calculated from the following equation to obtain IC50.

[2] = test system: Mouse phenylquinone writhing; assay: Mouse phenylquinone writhing inhibitory activity; type: in vivo, mouse (Slc: ICR); conditions: Mus musculus, po, 20 min, 50 mg/kg, orally; read-out: Inhibitory percentage (phenylquinone writhing)
Procedure, shortened: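 Male ICR mice (4 weeks, 17–24 g) dosed orally with compound suspended in 5% gum arabic. After 30 min, 0.02% phenylquinone (0.1 ml/10 g) given i.p.; writhing and stretching responses counted over 20 min.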

cyclooxygenase = molecular target: T2, cyclooxygenase (Rattus norvegicus, UniProt Q63921); assay: Cyclooxygenase inhibitory activity (HHT formation from arachidonic acid in rat platelet-rich plasma); type: cell-based, rat (Jcl:wistar)
T2 construct: from tissue; host or cells: platelets in platelet-rich plasma from rat abdominal aorta blood (Jcl:wistar, male)
T2 sequence (Q63921 27-602): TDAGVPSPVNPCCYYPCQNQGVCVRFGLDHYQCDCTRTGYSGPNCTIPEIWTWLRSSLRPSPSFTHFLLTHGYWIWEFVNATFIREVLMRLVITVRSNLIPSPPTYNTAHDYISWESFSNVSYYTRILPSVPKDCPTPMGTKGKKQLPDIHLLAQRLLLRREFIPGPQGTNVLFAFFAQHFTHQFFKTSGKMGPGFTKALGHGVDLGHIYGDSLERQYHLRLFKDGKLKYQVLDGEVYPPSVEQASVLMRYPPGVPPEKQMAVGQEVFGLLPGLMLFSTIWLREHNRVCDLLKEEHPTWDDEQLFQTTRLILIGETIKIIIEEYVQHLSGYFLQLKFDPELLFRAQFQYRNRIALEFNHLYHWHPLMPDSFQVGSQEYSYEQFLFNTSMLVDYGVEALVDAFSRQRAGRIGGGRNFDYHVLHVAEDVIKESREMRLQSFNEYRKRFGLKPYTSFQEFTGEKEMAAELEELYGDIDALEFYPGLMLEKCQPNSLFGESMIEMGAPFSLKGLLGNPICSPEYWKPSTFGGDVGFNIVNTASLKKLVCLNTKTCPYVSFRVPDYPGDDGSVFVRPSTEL

[3] = test system: Rat carrageenin pedal edema; assay: Rat carrageenin pedal edema inhibitory activity; type: in vivo, rat (Jcl: SD); conditions: Rattus norvegicus, po, 3 h, 50 mg/kg, orally, 3 hours after carrageenin; read-out: Inhibitory percentage (carrageenin pedal edema)
Experimental: Rat Carrageenin Pedal Edema Inhibitory Activity A Jcl: SD male rat (6 weeks old, weight 160-220 g) was used. After the mesurement of the volume of the dexter hind limb foot pad, a test compound suspended in 5% gum arabic solution was administered orally. Immediately after the administration, water was further administered orally so that the total administration volume of liquid became 5 ml/rat. After one hour, 0.05 ml of 1% carrageenin suspension in physiological saline was injected subcutaneously in the foot pad to induce edema [Winter, […]. and Nuss, G. W.: Proc. Soc. exp. […] Three hours after injection of carrageenin, the volume of the dexter limb was measured, and the edema volume was calculated by the difference between the volume after injection and the volume prior to injection.

ELAM-1 = assay: Adhesion protein expression inhibitory activity, ELAM-1; type: cell-based
Experimental: as §1

[4] = test system: Mouse acetic acid writhing; assay: Mouse acetic acid writhing inhibitory activity; type: in vivo, mouse (Slc: ICR); conditions: orally; for Inhibitory percentage (acetic acid writhing): 50 mg/kg, hydrochloride; for inhibition in vivo at 50 mg/kg: Mus musculus, po, 20 min, read-out: Inhibitory percentage (acetic acid writhing)
Experimental: Mouse Acetic Acid Writhing Inhibitory Activity
Ten male Slc: ICR mice, 4 weeks old, per 1 group were used. A test compound was administered orally, and after 30 minutes, 0.1 ml/10 g body weight of physiological saline containing 0.6% acetic acid was injected intraperitoneally. For 20 minutes, writhing (in agony condition) response by administration of acetic acid was counted regarding individual animals. The inhibitory percentage relative to the mean response counts of a control group was calculated regarding respective animals in a test compound administration group. The test compound was suspended in 5% gum arabic solution, and the administration volume was 0.2 ml/10 g.

[5] = test system: brewer's yeast induced pyrexia; assay: Antipyretic activity (brewer's yeast induced pyrexia); type: in vivo, rat (DS line); conditions: 50 mg/kg, orally
Procedure, shortened: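 Male DS rats (7 weeks, 200-240 g) made febrile by s.c. 15% brewer's yeast 18 h before dosing; only animals at ≥38.5° C used. Compound given orally versus solvent control, with rectal temperature taken by thermistor hourly for 5 h post-dose.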

[6] = 30 μM, human umbilical vascular endothelial cells, TNF-α; 360 min
[7] = 5-HETE, read-out: 5-Lipoxygenase inhibitory activity, 5-HETE IC50
[8] = LTB4, read-out: 5-Lipoxygenase inhibitory activity, LTB4 IC50
[9] = 10 μM, human umbilical vascular endothelial cells, TNF-α; 180 min

- IC50 (5-Lipoxygenase; [7]): 1800 nM
- IC50 (5-Lipoxygenase; [8]): 1100 nM
Compound: O=C1SC(=Cc2ccc(Cl)cc2)C(=O)N1CCCCSc1ccncc1 [Example 151, 4-[4-[5-(4-chlorobenzylidene)-2,4-thiazolidinedione]butylthio]pyridine]
- inhibition at 1 µM [1]: -1%
- inhibition at 10 µM [1]: 74%
- Expression Inhibitory Potency, ICAM-1 (ICAM-1; [6]): 60%

Compound: O=c1c2ccccc2n(CCCCSc2ccccn2)c(=O)n1CCCCSc1ccccn1 [Example 198, 1,3-bis[4-(2-pyridylthio)butyl]quinazoline-2,4(1H,3H)-dione]
- Expression Inhibitory Potency, ICAM-1 (ICAM-1; 13 μM, human umbilical vascular endothelial cells, TNF-α; 360 min): 25%

- IC50 (cyclooxygenase): 6200 nM
- IC50 (5-Lipoxygenase; [7]): 1400 nM
- IC50 (5-Lipoxygenase; [8]): 1200 nM
Compound: O=C1c2ccccc2CN1CCCCSc1ccncc1 [Example 109, 4-[4-(isoindolin-1-on-2-yl)butylthio]pyridine]
- inhibition at 1 µM [1]: -11%
- inhibition at 10 µM [1]: -33%
- inhibition in vivo at 50 mg/kg [2]: 89%
- inhibition in vivo at 50 mg/kg [3]: 25%

- IC50 (cyclooxygenase): 5100 nM
Compound: O=c1[nH]c2ccccc2c(=O)n1CCCCSc1ccncc1 [Example 146, 3-[4-(4-pyridylthio)butyl]quinazolin-2,4(1H,3H)-dione]
- inhibition at 1 µM [1]: 22%
- inhibition at 10 µM [1]: 20%
- Expression Inhibitory Potency, ELAM-1 (ELAM-1; 13 μM, human umbilical vascular endothelial cells, TNF-α; 180 min): 33%

Compound: O=C1CSC(=O)N1CSc1ccncc1 [Example 176, 4-(2,4-thiazolidinedionemethylthio)pyridine hydrochloride]
- Inhibitory percentage (acetic acid writhing) [4]: 87%

- IC50 (cyclooxygenase): 5500 nM
Compound: O=C(NCCCSc1ccncc1)c1cnccn1 [Example 124, 4-[3-(2-pyrazinecarbonylamino)propylthio]pyridine]
- Antipyretic activity, peak time [5]: 2 h
- Antipyretic activity, .increment. °C. ([5]; at peak time): -1.52 °C
- inhibition in vivo at 50 mg/kg [4]: 69%
- inhibition in vivo at 50 mg/kg [3]: 51%

Compound: CCCCCCCCCC=C1SC(=O)N(CCCCSc2ccncc2)C1=O [Example 187, 4-[4-(5-nonylmethylene-2,4-thiazolidinedione)butylthio]pyridine hydrochloride]
- Expression Inhibitory Potency, ICAM-1 (ICAM-1; 10 μM, human umbilical vascular endothelial cells, TNF-α; 360 min): 79%
- Expression Inhibitory Potency, ELAM-1 (ELAM-1; [9]): 53%

- IC50 (cyclooxygenase): 3300 nM
Compound: O=C(NCCSc1ccncc1)c1cc2ccccc2s1 [Example 123, 4-[2-(thianaphthene-2-carbonylamino)ethylthio]pyridine]
- inhibition at 1 µM [1]: 15%
- inhibition at 10 µM [1]: 66%
- Expression Inhibitory Potency, ICAM-1 (ICAM-1; [6]): 34%

Compound: O=C1SC(=Cc2ccncc2)C(=O)N1CCCCSc1ccncc1 [Example 184, 4-[4-[5-(4-pyridyl)methylene-2,4-thiazolidinedione]butylthio]pyridine]
- Expression Inhibitory Potency, ELAM-1 (ELAM-1; [9]): 47%

Compound: CC1(C)OC(=O)N(CCCCSc2ccncc2)C1=O [Example 167, 4-(4-(5,5-dimethyloxazolidine-2,4-dione)butylthio]pyridine]
- inhibition in vivo at 50 mg/kg [4]: 62%

Compound: O=C1c2ccccc2S(=O)(=O)N1CSc1ccncc1 [Example 180, 4-(saccharinmethylthio)pyridine hydrochloride]
- Expression Inhibitory Potency, ICAM-1 (ICAM-1; 13 μM, human umbilical vascular endothelial cells, TNF-α, 360 min, hydrochloride): 35%
- Expression Inhibitory Potency, ELAM-1 (ELAM-1; 13 μM, human umbilical vascular endothelial cells, TNF-α, 180 min, hydrochloride): 29%

Compound: O=C1SC(=Cc2cccnc2)C(=O)N1CCCCSc1ccncc1 [Example 185, 4-[4-[5-(3-pyridyl)methylene-2,4-thiazolidinedione]butylthio]pyridine]
- Expression Inhibitory Potency, ELAM-1 (ELAM-1; [9]): 33%

- IC50 (5-Lipoxygenase; [7]): 1300 nM
- IC50 (5-Lipoxygenase; [8]): 790 nM
Compound: O=C1C(=Cc2ccccc2)SC(=S)N1CCCCSc1ccncc1 [Example 153, 4-[4-(5-benzylidenerhodanine)butylthio]pyridine]
- inhibition at 1 µM [1]: -20%
- inhibition at 10 µM [1]: 75%
- inhibition in vivo at 50 mg/kg [4]: 49%

Compound: CC1(C)OC(=O)N(CSc2ccncc2)C1=O [Example 179, 4-(5,5-dimethyloxazolidine-2,4-dionemethylthio)pyridine hydrochloride]
- Inhibitory percentage (acetic acid writhing) [4]: 66%

Compound: O=c1c2ccccc2oc(=S)n1CCSc1ccncc1 [Example 170, 4-[2-[2H-1,3-benzoxadine-2-thion-4(3H)-on]ethylthio]pyridine]
- inhibition in vivo at 50 mg/kg [4]: 91%

Compound: O=C1c2ccccc2S(=O)(=O)N1CSc1ccncc1 [Example 172, 4-saccharinmethylthiopyridine]
- Expression Inhibitory Potency, ICAM-1 (ICAM-1; 13 μM, human umbilical vascular endothelial cells, TNF-α, 360 min): 34%
- Expression Inhibitory Potency, ELAM-1 (ELAM-1; 13 μM, human umbilical vascular endothelial cells, TNF-α, 180 min): 31%
- inhibition in vivo at 50 mg/kg [3]: 19%
